Measurements from patent US4760088A, “Biocidal derivatives of catechins” (Board of Control of Michigan Technological University, priority 1986, dated 1988).
In brackets after ≈: the same amount, converted by molar mass. Read-outs that look alike come from different tables or passages of the source.

Assays:
Format in all cases: cell-based
Coriolus versicolor = experiment: Biocidal effect on wood-destroying fungi, white-rotters (agar plate mycelium growth); conditions: Trametes versicolor; no growth observed; malt extract agar, 26° C.; max. tested 1000 ppm; read-out: Minimum Inhibitory Concentration (MIC)
Procedure: (§1) Tests were made to determine the biocidal properties of the epicatechin-4-alkylsulfides prepared in Examples 1 and 2 on different wood-rotting fungi and bacteria.
(§2) Agar plates containing the epicatechin-4-alkylsulfide to be tested were prepared by adding one part of an ethanol solution containing a known concentration of the test compound to 99 parts of molten malt extract agar. After thorough mixing, the medium was poured into 8 cm petri dishes. When the agar had cooled and hardened, the plates were inoculated by placing in the center of the plate a 5 mm diameter plug taken from an agar plate containing an actively growing culture of the test organism and incubated at 26° C. The diameter of the mycelium formed was measured when the culture on a control plate (containing no test compound) had reached the perimeter of the petri dish, or after seven days, whichever came first. Three duplicates were run for each test compound/test organism combination.

[1] = tested on: Phanerochaete chrysosporium; experiment: as above; conditions: Phanerodontia chrysosporium; no growth observed; malt extract agar, 26° C.; max. tested 1000 ppm; read-out: Minimum Inhibitory Concentration (MIC)
Procedure: as §1, §2

Pycnoporus cinnabarinus = experiment: as above; conditions: Trametes cinnabarina; no growth observed; malt extract agar, 26° C.; max. tested 1000 ppm; read-out: Minimum Inhibitory Concentration (MIC)
Procedure: as §1, §2

Geophyllum trabeum = experiment: Biocidal effect on wood-destroying fungi, brown-rotters (agar plate mycelium growth); conditions: no growth observed; malt extract agar, 26° C.; max. tested 1000 ppm; read-out: Minimum Inhibitory Concentration (MIC)
Procedure: as §1, §2

Poria placenta = experiment: as above; conditions: no growth observed; malt extract agar, 26° C.; max. tested 1000 ppm; read-out: Minimum Inhibitory Concentration (MIC)
Procedure: as §1, §2

Wolfiporia cocos = experiment: as above; conditions: no growth observed, malt extract agar, 26° C., max. tested 1000 ppm, read-out: Minimum Inhibitory Concentration (MIC)
Procedure: as §1, §2

Chaetomium globosom = experiment: Biocidal effect on wood-destroying fungi, soft-rotters (agar plate mycelium growth); conditions: no growth observed, malt extract agar, 26° C., max. tested 1000 ppm, read-out: Minimum Inhibitory Concentration (MIC)
Procedure: as §1, §2

Lecythophora hoffmannii = experiment: as above; conditions: Coniochaeta hoffmannii; no growth observed; malt extract agar, 26° C.; max. tested 1000 ppm; read-out: Minimum Inhibitory Concentration (MIC)
Procedure: as §1, §2

Scytalidium lignicola = experiment: as above; conditions: no growth observed, malt extract agar, 26° C., max. tested 1000 ppm, read-out: Minimum Inhibitory Concentration (MIC)
Procedure: as §1, §2

Enterobacter cloacae = experiment: Biocidal effect on bacteria, gram-negative (agar plate); conditions: 24 h, read-out: Minimum Inhibitory Concentration (MIC)
Procedure: as §1
(§3) Agar plates containing the test compounds were made as above, but with brain-heart infusion agar. The plates were inoculated with a standardized suspension of bacterial cells using a calibrated 3 mm loop and incubated at 35° C. After one day (two days for Micrococcus luteus), the number of resulting bacteria cultures were counted. Streptomycin was used under the same conditions on each test organism for a comparison.

Escherchia coli = experiment: as above; conditions: 24 h; no colonies observed; brain-heart infusion agar, 35° C., one day; max. tested 500 ppm; read-out: Minimum Inhibitory Concentration (MIC)
Procedure: as §1, §3

Klebsiella pneumoneae = experiment: as above; conditions: 24 h, read-out: Minimum Inhibitory Concentration (MIC)
Procedure: as §1, §3

Pseudomonas aeruginosa = experiment: as above; conditions: 24 h, read-out: Minimum Inhibitory Concentration (MIC)
Procedure: as §1, §3

Bacillus cereus = experiment: Biocidal effect on bacteria, gram-positive (agar plate); conditions: 24 h, read-out: Minimum Inhibitory Concentration (MIC)
Procedure: as §1, §3

Micrococcus liteus = experiment: as above; conditions: 48 h, read-out: Minimum Inhibitory Concentration (MIC)
Procedure: as §1, §3

Streptococcus faciens = experiment: as above; conditions: 24 h, read-out: Minimum Inhibitory Concentration (MIC)
Procedure: as §1, §3

fungi = experiment: Fungicidal effect against a variety of fungi (overall statement); conditions: at the concentrations tested
Procedure: as §1, §2

gram-positive bacteria = experiment: Effect against gram-positive bacteria compared with streptomycin (overall statement); conditions: versus streptomycin under the same conditions
Procedure: as §1, §3

bacteria = experiment: Bactericidal effect (overall statement); conditions: at the concentrations tested
Procedure: as §1, §3

[2] = no colonies observed, brain-heart infusion agar, 35° C., one day, max. tested 500 ppm
[3] = no colonies observed, brain-heart infusion agar, 35° C., two days, max. tested 500 ppm

Structure (SMILES)	MIC (Coriolus versicolor)	MIC [1]	MIC (Pycnoporus cinnabarinus)	MIC (Geophyllum trabeum)	MIC (Poria placenta)	MIC (Wolfiporia cocos)	MIC (Chaetomium globosom)	MIC (Lecythophora hoffmannii)	MIC (Scytalidium lignicola)	MIC (Enterobacter cloacae; [2])	MIC (Escherchia coli)	MIC (Klebsiella pneumoneae; [2])	MIC (Pseudomonas aeruginosa; [2])	MIC (Bacillus cereus; [2])	MIC (Micrococcus liteus; [3])	MIC (Streptococcus faciens; [2])	fungicidal properties (fungi)	other results
CCCCCCSC1c2c(O)cc(O)cc2OC(c2ccc(O)c(O)c2)C1O (stereo not shown) [C6]	800 µg/mL	250 µg/mL	500 µg/mL	1000 µg/mL	500 µg/mL	500 µg/mL	500 µg/mL	800 µg/mL	80 µg/mL	300 µg/mL (≈ 738 µM)	300 µg/mL (≈ 738 µM)	500 µg/mL (≈ 1230 µM)	500 µg/mL (≈ 1230 µM)	80 µg/mL (≈ 197 µM)	50 µg/mL (≈ 123 µM)	200 µg/mL (≈ 492 µM)		
CCCCCCCCSC1c2c(O)cc(O)cc2OC(c2ccc(O)c(O)c2)C1O (stereo not shown) [C8]	250 µg/mL	100 µg/mL	1000 µg/mL	1000 µg/mL	250 µg/mL	1000 µg/mL	1000 µg/mL	400 µg/mL	25 µg/mL		500 µg/mL (≈ 1150 µM)	500 µg/mL (≈ 1150 µM)		20 µg/mL (≈ 46 µM)	40 µg/mL (≈ 92 µM)	60 µg/mL (≈ 138 µM)	effective fungicide	
CCCCCCCCCCSC1c2c(O)cc(O)cc2OC(c2ccc(O)c(O)c2)C1O (stereo not shown) [C10]	200 µg/mL	50 µg/mL		1000 µg/mL	1000 µg/mL			300 µg/mL	8 µg/mL	500 µg/mL (≈ 1080 µM)	500 µg/mL (≈ 1080 µM)	500 µg/mL (≈ 1080 µM)	300 µg/mL (≈ 648 µM)	5 µg/mL (≈ 10.8 µM)	5 µg/mL (≈ 10.8 µM)	30 µg/mL (≈ 64.8 µM)	effective fungicide	effectiveness against gram-positive bacteria compared with streptomycin (gram-positive bacteria): substantially more effective
CCCCCCCCCCCCSC1c2c(O)cc(O)cc2OC(c2ccc(O)c(O)c2)C1O (stereo not shown) [C12]	1000 µg/mL	1000 µg/mL	1000 µg/mL	1000 µg/mL	1000 µg/mL	1000 µg/mL	1000 µg/mL	1000 µg/mL	100 µg/mL		500 µg/mL (≈ 1020 µM)	500 µg/mL (≈ 1020 µM)		50 µg/mL (≈ 102 µM)	50 µg/mL (≈ 102 µM)	75 µg/mL (≈ 153 µM)		
CCCCCCCCCCCCCCCCSC1c2c(O)cc(O)cc2OC(c2ccc(O)c(O)c2)C1O (stereo not shown) [C16]	1000 µg/mL	1000 µg/mL		1000 µg/mL	1000 µg/mL			1000 µg/mL	200 µg/mL	500 µg/mL (≈ 914 µM)	500 µg/mL (≈ 914 µM)	500 µg/mL (≈ 914 µM)	50 µg/mL (≈ 91.4 µM)	75 µg/mL (≈ 137 µM)	75 µg/mL (≈ 137 µM)	100 µg/mL (≈ 183 µM)		
Oc1cc(O)c2c(c1)O[C@H](c1ccc(O)c(O)c1)[C@H](O)C2 [Epicatechin, reference compound]																	no fungicidal	bactericidal properties (bacteria): minimal bactericidal properties
[H]/N=C(/N)N[C@H]1[C@H](O)[C@@H](O)[C@H](O[C@@H]2O[C@@H](C)[C@](O)(C=O)[C@H]2O[C@@H]2O[C@@H](CO)[C@H](O)[C@@H](O)[C@@H]2NC)[C@@H](N/C(N)=N\[H])[C@@H]1O [Strep, Streptomycin, reference compound]											5 µg/mL (≈ 8.6 µM)							MIC (Enterobacter cloacae): 1 µg/mL (≈ 1.72 µM); MIC (Klebsiella pneumoneae): 8 µg/mL (≈ 13.8 µM); MIC (Pseudomonas aeruginosa): 50 µg/mL (≈ 86 µM); MIC (Bacillus cereus): 20 µg/mL (≈ 34.4 µM); MIC (Micrococcus liteus): 8 µg/mL (≈ 13.8 µM); MIC (Streptococcus faciens): 50 µg/mL (≈ 86 µM)
